Target: T1, histamine H4 receptor (Homo sapiens, UniProt Q9H3N8)
T1 construct: expressed in transfected cells; host or cells: HEK293SFM cells (membrane preparation)
Assay: Inhibition of histamine H4 receptor (Table A1; H4 membrane binding assay)
Conditions: for IC50: histamine H4 receptor, "> a" = exceeds experiment limit
Method in brief: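 Membranes came from recombinant HEK293SFM cells expressing human H4, homogenized in 50 mM Tris-HCl pH 7.5 with protease inhibitors. Nonspecific binding was set with 1000× unlabeled ligand. Bound radioligand was separated on PEI-treated GF/B filters and counted by liquid scintillation.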

T1 sequence (Q9H3N8 whole entry): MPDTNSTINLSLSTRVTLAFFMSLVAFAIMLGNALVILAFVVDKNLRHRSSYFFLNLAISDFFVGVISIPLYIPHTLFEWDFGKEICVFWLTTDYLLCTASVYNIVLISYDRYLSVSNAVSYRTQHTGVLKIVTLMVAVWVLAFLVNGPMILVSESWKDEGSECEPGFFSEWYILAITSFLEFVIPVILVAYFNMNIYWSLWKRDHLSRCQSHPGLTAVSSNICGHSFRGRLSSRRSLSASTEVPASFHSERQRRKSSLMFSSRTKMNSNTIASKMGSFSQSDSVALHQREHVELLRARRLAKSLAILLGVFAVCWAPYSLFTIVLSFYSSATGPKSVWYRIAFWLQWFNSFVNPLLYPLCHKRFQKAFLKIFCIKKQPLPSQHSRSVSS

CCOC(=O)Nc1ccc2c(c1)CN(c1cc(N3CCN(C)CC3)nc(N)n1)CC2 [Example 34, Ethyl {2-[2-amino-6-(4-methylpiperazin-1-yl)pyrimidin-4-yl]-1,2,3,4-tetrahydroisoquinolin-7-yl}carbamate]
inhibition at 1 µM: 69%

CN1CCN(c2cc(N3CCc4ccc(N5CCC(c6ccn(C)c(=O)c6)CC5)cc4C3)nc(N)n2)CC1 [Example 41, 4-(1-{2-[2-Amino-6-(4-methylpiperazin-1-yl)pyrimidin-4-yl]-1,2,3,4-tetrahydroisoquinolin-7-yl}piperidin-4-yl)-1-methylpyridin-2(1H)-one]
IC50: 38 nM

CNC(=O)c1ccc(-c2ccc3c(c2)CN(c2cc(N4CCN(C)CC4)nc(N)n2)C(C)C3)cc1C (stereo not shown) [Example 130, 4-{2-[2-Amino-6-(4-methylpiperazin-1-yl)pyrimidin-4-yl]-3-methyl-1,2,3,4-tetrahydroisoquinolin-7-yl}-N,2-dimethylbenzamide]
IC50: 69 nM

CC1Cc2ccc(-c3ccn(Cc4ccncc4)n3)cc2CN1c1cc(N2CCN(C)CC2)nc(N)n1 (single isomer, unassigned) [Example 157, 4-(4-Methylpiperazin-1-yl)-6-[3-methyl-7-[1-(pyridin-4-ylmethyl)-1H-pyrazol-3-yl]-3,4-dihydroisoquinolin-2(1H)-yl]pyrimidin-2-amine]
IC50: 8.7 nM

CC1Cc2ccc(-c3cc(C(=O)N4CCC4)n(C)c3)cc2CN1c1cc(N2CCN(C)CC2)nc(N)n1 (single isomer, unassigned) [Example 92B, 4-[7-[5-(azetidin-1-ylcarbonyl)-1-methyl-1H-pyrrol-3-yl]-3-methyl-3,4-dihydroisoquinolin-2(1H)-yl]-6-(4-methylpiperazin-1-yl)pyrimidin-2-amine]
IC50: 127 nM

CN1CCN(c2cc(N3CCCc4ccc(O)cc43)nc(N)n2)CC1 [Example 21, 1-[2-Amino-6-(4-methylpiperazin-1-yl)pyrimidin-4-yl]-1,2,3,4-tetrahydroquinolin-7-ol]
IC50: 181 nM

CN1CCN(c2cc(N3CCc4ccc(N5CCN(C(=O)Nc6ccc(Cl)cc6)CC5)cc4C3)nc(N)n2)CC1 [Example 33, 4-{2-[2-Amino-6-(4-methylpiperazin-1-yl)pyrimidin-4-yl]-1,2,3,4-tetrahydroisoquinolin-7-yl}-N-(4-chlorophenyl)piperazine-1-carboxamide]
IC50: 266 nM

CC1Cc2ccc(-c3cnn(C)c3)cc2CN1c1cc(N2CC[C@@H](N)C2)nc(N)n1 (stereo partly drawn) [Example 118, 4-[(3R)-3-Aminopyrrolidin-1-yl]-6-[3-methyl-7-(1-methyl-1H-pyrazol-4-yl)-3,4-dihydroisoquinolin-2(1H)-yl]pyrimidin-2-amine]
IC50: 255 nM

CN1CCN(c2cc(N3CCc4ccc(-c5cnc(C#N)c(F)c5)cc4C3)nc(N)n2)CC1 [Example 7, 5-{2-[2-Amino-6-(4-methylpiperazin-1-yl)pyrimidin-4-yl]-1,2,3,4-tetrahydroisoquinolin-7-yl}-3-fluoropyridine-2-carbonitrile]
IC50: 76 nM

CC1Cc2ccc(-c3cnn(C4CCN(CCO)CC4)c3)cc2CN1c1cc(N2CCN(C)CC2)nc(N)n1 (single isomer, unassigned) [Example 111, 2-[4-(4-{2-[2-Amino-6-(4-methylpiperazin-1-yl)pyrimidin-4-yl]-3-methyl-1,2,3,4-tetrahydroisoquinolin-7-yl}-1H-pyrazol-1-yl)piperidin-1-yl]ethanol]
IC50: 22 nM

CCOc1ccc(Cn2cc(-c3ccc4c(c3)CN(c3cc(N5CCN(C)CC5)nc(N)n3)CC4)cn2)cn1 [Example 10, 4-[7-{1-[(6-Ethoxypyridin-3-yl)methyl]-1H-pyrazol-4-yl}-3,4-dihydroisoquinolin-2(1H)-yl]-6-(4-methylpiperazin-1-yl)pyrimidin-2-amine]
IC50: 102 nM

CC1Cc2ccc(-c3ccnc(C(=O)N4CC(O)C4)c3)cc2CN1c1cc(N2CCN(C)CC2)nc(N)n1 (stereo not shown) [Example 153, 1-[(4-{2-[2-Amino-6-(4-methylpiperazin-1-yl)pyrimidin-4-yl]-3-methyl-1,2,3,4-tetrahydroisoquinolin-7-yl}pyridin-2-yl)carbonyl]azetidin-3-ol]
IC50: 27 nM

CNC(=O)c1ccc(-c2cc3c(cc2F)CCN(c2cc(N4CCN(C)CC4)nc(N)n2)C3)cn1 [Example 127, 5-{2-[2-Amino-6-(4-methylpiperazin-1-yl)pyrimidin-4-yl]-6-fluoro-1,2,3,4-tetrahydroisoquinolin-7-yl}-N-methylpyridine-2-carboxamide]
IC50: 104 nM

CC1Cc2ccc(-c3cnn(CC4(C#N)CC4)c3)cc2CN1c1cc(N2CCN(C)CC2)nc(N)n1 (single isomer, unassigned) [Example 97A, 1-[(4-{2-[2-amino-6-(4-methylpiperazin-1-yl)pyrimidin-4-yl]-3-methyl-1,2,3,4-tetrahydroisoquinolin-7-yl}-1H-pyrazol-1-yl)methyl]cyclopropanecarbonitrile]
IC50: 44 nM

CC1Cc2ccc(-c3ccnc(C(=O)N4CC(C#N)C4)c3)cc2CN1c1cc(N2CCN(C)CC2)nc(N)n1 (single isomer, unassigned) [Example 63A, 1-[(4-{2-[2-amino-6-(4-methylpiperazin-1-yl)pyrimidin-4-yl]-3-methyl-1,2,3,4-tetrahydroisoquinolin-7-yl}pyridin-2-yl)carbonyl]azetidine-3-carbonitrile]
IC50: 44 nM

CC(C)NC(=O)c1cc(-c2ccc3c(c2)CN(c2cc(N4CCN(C)CC4)nc(N)n2)C(C)C3)cn1C (single isomer, unassigned) [Example 90A, 4-{2-[2-Amino-6-(4-methylpiperazin-1-yl)pyrimidin-4-yl]-3-methyl-1,2,3,4-tetrahydroisoquinolin-7-yl}-N-isopropyl-1-methyl-1H-pyrrole-2-carboxamide]
IC50: 66 nM

CC1Cc2ccc(-c3ccc(C(=O)N[C@H](C)CO)nc3)cc2CN1c1cc(N2CCN(C)CC2)nc(N)n1 (single isomer, unassigned) [Example 51B]
IC50: 63 nM

CC1Cc2ccc(-c3ccc4c(c3)N(C)C(=O)CO4)cc2CN1c1cc(N2CCN(C)CC2)nc(N)n1 (stereo not shown) [Example 132, 6-{2-[2-Amino-6-(4-methylpiperazin-1-yl)pyrimidin-4-yl]-3-methyl-1,2,3,4-tetrahydroisoquinolin-7-yl}-4-methyl-2H-1,4-benzoxazin-3(4H)-one]
IC50: 39 nM

CNC(=O)c1ccc(-c2ccc3c(c2)CN(c2cc(N4CCN(C)CC4)nc(N)n2)CC3)cn1 [Example 2, 5-{2-[2-Amino-6-(4-methylpiperazin-1-yl)pyrimidin-4-yl]-1,2,3,4-tetrahydroisaquinolin-7-yl}-N-methylpyridine-2-carboxamide]
IC50: 20 nM

CC1Cc2ccc(-c3ccnc(C(=O)N4CCC4)c3)cc2CN1c1cc(N2CCN(C)CC2)nc(N)n1 (single isomer, unassigned) [Example 62A, 4-[7-[2-(azetidin-1-ylcarbonyl)pyridin-4-yl]-3-methyl-3,4-dihydroisoquinolin-2 (1H)-yl]-6-(4-methylpiperazin-1-yl)pyrimidin-2-amine]
IC50: 46 nM

CC1Cc2ccc(-c3ccc(C(=O)N4CCCC4)nc3)cc2CN1c1cc(N2CCN(C)CC2)nc(N)n1 (single isomer, unassigned) [Example 55B, 4-(4-methylpiperazin-1-yl)-6-[3-methyl-7-[6-(pyrrolidin-1-ylcarbonyl)pyridin-3-yl]-3,4-dihydroisoquinolin-2(1H)-yl]pyrimidin-2-amine]
inhibition at 1 µM: 65%

CC1Cc2ccc(-c3cnn(CC(=O)N(C)C)c3)cc2CN1c1cc(N2CCN(C)CC2)nc(N)n1 (stereo not shown) [Example 80, 2-(4-{2-[2-Amino-6-(4-methylpiperazin-1-yl)pyrimidin-4-yl]-3-methyl-1,2,3,4-tetrahydroisoquinolin-7-yl}-1H-pyrazol-1-yl)-N,N-dimethylacetamide]
IC50: 106 nM

CC1Cc2ccc(-c3cnn(C4CCCC4)c3)cc2CN1c1cc(N2CCN(C)CC2)nc(N)n1 (single isomer, unassigned) [Example 115, 4-[7-(1-Cyclopentyl-1H-pyrazol-4-yl)-3-methyl-3,4-dihydroisoquinolin-2(1H)-yl]-6-(4-methylpiperazin-1-yl)pyrimidin-2-amine]
IC50: 40 nM

CC1Cc2ccc(-c3ccc(C(=O)N4CC(C#N)C4)nc3)cc2CN1c1cc(N2CCN(C)CC2)nc(N)n1 (single isomer, unassigned) [Example 54B, 1-[(5-{2-[2-amino-6-(4-methylpiperazin-1-yl)pyrimidin-4-yl]-3-methyl-1,2,3,4-tetrahydroisoquinolin-7-yl}pyridin-2-yl)carbonyl]azetidine-3-carbonitrile]
IC50: 48 nM

CNC(=O)c1ccc(N2CCN(c3ccc4c(c3)CN(c3cc(N5CCN(C)CC5)nc(N)n3)CC4)C(=O)C2)nc1 [Example 44, 6-(4-{2-[2-Amino-6-(4-methylpiperazin-1-yl)pyrimidin-4-yl]-1,2,3,4-tetrahydroisoquinolin-7-yl}-3-oxopiperazin-1-yl)-N-methylnicotinamide]
IC50: 93 nM

CC1Cc2ccc(-c3ccnc(C(=O)N4CC(C#N)C4)c3)cc2CN1c1cc(N2CCN(C)CC2)nc(N)n1 (single isomer, unassigned) [Example 63B, 1-[(4-{2-[2-amino-6-(4-methylpiperazin-1-yl)pyrimidin-4-yl]-3-methyl-1,2,3,4-tetrahydroisoquinolin-7-yl}pyridin-2-yl)carbonyl]azetidine-3-carbonitrile]
IC50: 47 nM

CCNC(=O)c1ncc(-c2ccc3c(c2)CN(c2cc(N4CCN(C)CC4)nc(N)n2)C(C)C3)cn1 (single isomer, unassigned) [Example 77, 5-{2-[2-Amino-6-(4-methylpiperazin-1-yl)pyrimidin-4-yl]-3-methyl-1,2,3,4-tetrahydroisoquinolin-7-yl}-N-ethylpyrimidine-2-carboxamide]
IC50: 149 nM

CNC(=O)c1ccc(C2CCN(c3ccc4c(c3)CN(c3cc(N5CCN(C)CC5)nc(N)n3)CC4)CC2)cc1 [Example 39, 4-(1-{2-[2-Amino-6-(4-methylpiperazin-1-yl)pyrimidin-4-yl]-1,2,3,4-tetrahydroisoquinolin-7-yl}piperidin-4-yl)-N-methylbenzamide]
IC50: 51 nM

Source: patent US20130244999A1, “Substituted Heterocyclic Compounds” (Incyte Corporation, priority 2008, published 2013)
